Laboratory results published in US20240174657A1, “SELECTIVE ANGIOTENSIN II RECEPTOR LIGANDS” (priority 2021, published 2024).

What was measured:
CYP2B6 = biological target: T1, CYP2B6 (Homo sapiens, UniProt P20813); assay: CYP inhibition in human liver microsomes, bupropion substrate; type: in vitro ADME; conditions: probe bupropion, read-out: CYP2B6 Inh %
T1 construct: using isoform-specific substrates incubated with human liver microsomes; tissue Eurofins protocol ITEMG232; host or cells: human liver microsomes
T1 sequence (P20813 1-491): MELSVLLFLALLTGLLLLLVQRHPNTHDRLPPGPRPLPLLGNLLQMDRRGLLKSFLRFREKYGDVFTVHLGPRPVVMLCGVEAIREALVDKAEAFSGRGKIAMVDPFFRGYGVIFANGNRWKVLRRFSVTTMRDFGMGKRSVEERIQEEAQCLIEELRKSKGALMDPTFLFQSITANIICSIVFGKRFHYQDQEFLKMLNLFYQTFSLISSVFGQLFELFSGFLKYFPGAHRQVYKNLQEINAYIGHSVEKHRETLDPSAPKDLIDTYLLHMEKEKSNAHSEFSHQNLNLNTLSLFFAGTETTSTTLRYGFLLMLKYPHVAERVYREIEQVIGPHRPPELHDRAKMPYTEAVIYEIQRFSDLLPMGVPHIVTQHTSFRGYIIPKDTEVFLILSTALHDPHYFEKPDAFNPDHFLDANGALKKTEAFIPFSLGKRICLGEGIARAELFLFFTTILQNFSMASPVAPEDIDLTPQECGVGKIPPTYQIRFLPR

CYP2D6 = biological target: T2, CYP2D6 (Homo sapiens, UniProt P10635); assay: CYP inhibition in human liver microsomes, dextromethorphan substrate; type: in vitro ADME; conditions: probe dextromethorphan, read-out: CYP2D6 Inh %
T2 construct: tissue Eurofins protocol ITEMG232; host or cells: human liver microsomes
T2 sequence (P10635 whole entry): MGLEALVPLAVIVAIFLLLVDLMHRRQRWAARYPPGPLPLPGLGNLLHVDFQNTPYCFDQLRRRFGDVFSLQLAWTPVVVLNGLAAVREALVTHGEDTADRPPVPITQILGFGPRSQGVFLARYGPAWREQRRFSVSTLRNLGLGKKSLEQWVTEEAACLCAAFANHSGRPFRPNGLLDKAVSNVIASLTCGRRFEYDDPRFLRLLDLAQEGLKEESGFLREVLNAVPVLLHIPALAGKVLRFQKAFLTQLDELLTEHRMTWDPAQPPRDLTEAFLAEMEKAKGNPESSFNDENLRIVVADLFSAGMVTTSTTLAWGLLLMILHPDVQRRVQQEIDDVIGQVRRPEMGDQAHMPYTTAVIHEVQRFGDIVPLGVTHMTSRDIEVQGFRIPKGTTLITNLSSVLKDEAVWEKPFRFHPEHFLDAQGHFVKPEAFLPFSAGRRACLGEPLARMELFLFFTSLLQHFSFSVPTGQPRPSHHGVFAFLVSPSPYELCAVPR

CYP2C9 = biological target: T3, CYP2C9 (Homo sapiens, UniProt P11712); assay: CYP inhibition in human liver microsomes, diclofenac substrate; type: in vitro ADME; conditions: probe diclofenac, read-out: CYP2C9 Inh %
T3 construct: using isoform-specific substrates incubated with human liver microsomes; tissue Eurofins protocol ITEMG232; host or cells: human liver microsomes
T3 sequence (P11712 whole entry, canonical isoform): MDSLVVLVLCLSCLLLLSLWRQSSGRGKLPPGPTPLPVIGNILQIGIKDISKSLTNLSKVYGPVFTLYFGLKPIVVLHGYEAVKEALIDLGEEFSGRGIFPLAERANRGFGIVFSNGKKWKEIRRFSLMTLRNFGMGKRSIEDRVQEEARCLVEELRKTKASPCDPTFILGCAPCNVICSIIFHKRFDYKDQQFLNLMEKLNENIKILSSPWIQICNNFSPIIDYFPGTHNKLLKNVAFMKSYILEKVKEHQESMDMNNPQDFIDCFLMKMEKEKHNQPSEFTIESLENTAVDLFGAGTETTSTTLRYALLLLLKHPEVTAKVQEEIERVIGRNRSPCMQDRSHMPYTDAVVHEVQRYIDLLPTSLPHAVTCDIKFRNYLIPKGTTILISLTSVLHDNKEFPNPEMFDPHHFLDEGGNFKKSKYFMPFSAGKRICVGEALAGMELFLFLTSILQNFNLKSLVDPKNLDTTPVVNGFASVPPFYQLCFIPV

CYP3A4 = biological target: T4, CYP3A4 (Homo sapiens, UniProt P08684); assay: CYP inhibition in human liver microsomes, midazolam substrate; type: in vitro ADME; conditions: probe midazolam, read-out: CYP3A4 midazolam Inh %
T4 construct: using isoform-specific substrates incubated with human liver microsomes; tissue Eurofins protocol ITEMG232; host or cells: human liver microsomes
T4 sequence (P08684 whole entry, canonical isoform): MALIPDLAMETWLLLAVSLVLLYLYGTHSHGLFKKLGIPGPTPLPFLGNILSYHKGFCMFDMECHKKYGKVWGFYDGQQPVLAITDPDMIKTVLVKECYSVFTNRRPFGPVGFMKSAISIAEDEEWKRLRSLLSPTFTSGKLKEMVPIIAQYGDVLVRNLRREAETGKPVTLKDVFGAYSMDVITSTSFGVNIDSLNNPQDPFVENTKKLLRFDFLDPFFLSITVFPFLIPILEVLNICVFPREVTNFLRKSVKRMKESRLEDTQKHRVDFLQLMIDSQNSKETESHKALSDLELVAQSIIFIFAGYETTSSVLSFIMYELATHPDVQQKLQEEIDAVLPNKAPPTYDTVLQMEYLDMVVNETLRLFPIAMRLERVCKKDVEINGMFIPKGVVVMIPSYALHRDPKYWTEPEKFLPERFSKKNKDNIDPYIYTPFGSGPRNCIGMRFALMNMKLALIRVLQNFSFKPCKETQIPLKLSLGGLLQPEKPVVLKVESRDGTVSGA

[1] = Metabolic stability in pooled human liver microsomes; type: in vitro ADME; conditions: human liver microsomes 0.5 mg/mL, 1 uM test compound, 37° C.; for T1/2, + NaDPH: with 1 mM NADPH; for half-life at 1 uM: pooled human liver microsomes, without NADPH, read-out: T1/2, no NaDPH
Description: Pooled human liver microsomes in PBS at a concentration of 0.5 mg/mL was incubated with or without 1 mM NADPH for 70 min at 37° C. Test compound was added after 10 minutes to a final concentration of 1 uM. Samples were withdrawn at 0, 5, 15 and 60 minutes and added to test tubes containing acetonitrile, to stop the reaction, and with terfenadine, used as internal standard. After centrifugation at 10 000×g for 5 minutes the supernatant was diluted 1:1 with 1% formic acid. Samples were separated on a reverse phase column and detected by triple quadrupole MSMS (Agilant model 6540). The concentration of the parent compound at the different time points was measured with an external standard curve using terfenadine as internal standard and the initial metabolic rate in the presence or absence of NADPH calculated.

CYP1A = biological target: T5, CYP1A (Homo sapiens, UniProt P05177); assay: CYP inhibition in human liver microsomes, phenacetin substrate; type: in vitro ADME; conditions: probe phenacetin, read-out: CYP1A Inh %
T5 construct: using isoform-specific substrates incubated with human liver microsomes; tissue Eurofins protocol ITEMG232; host or cells: human liver microsomes
T5 sequence (P05177 whole entry, canonical isoform): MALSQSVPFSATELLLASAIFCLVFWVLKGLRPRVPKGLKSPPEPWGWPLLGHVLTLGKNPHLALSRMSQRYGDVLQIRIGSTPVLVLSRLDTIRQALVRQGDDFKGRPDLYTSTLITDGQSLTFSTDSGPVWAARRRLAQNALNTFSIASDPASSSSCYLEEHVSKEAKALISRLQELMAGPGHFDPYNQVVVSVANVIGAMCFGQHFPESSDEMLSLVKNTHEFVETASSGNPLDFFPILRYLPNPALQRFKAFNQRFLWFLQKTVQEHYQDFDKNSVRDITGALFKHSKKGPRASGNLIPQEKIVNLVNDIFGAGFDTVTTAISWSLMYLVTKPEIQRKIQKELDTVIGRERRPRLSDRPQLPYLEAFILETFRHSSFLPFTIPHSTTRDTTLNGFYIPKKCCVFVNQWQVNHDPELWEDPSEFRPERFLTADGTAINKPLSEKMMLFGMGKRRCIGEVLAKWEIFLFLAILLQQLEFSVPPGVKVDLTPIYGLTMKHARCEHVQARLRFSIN

CYP2C8 = biological target: T6, CYP2C8 (Homo sapiens, UniProt P10632); assay: CYP inhibition in human liver microsomes, paclitaxel and amodiaquine substrates; type: in vitro ADME; conditions: probe paclitaxel and amodiaquine, read-out: CYP2C8 Inh %
T6 construct: using isoform-specific substrates incubated with human liver microsomes; tissue Eurofins protocol ITEMG232; host or cells: human liver microsomes
T6 sequence (P10632 1-490): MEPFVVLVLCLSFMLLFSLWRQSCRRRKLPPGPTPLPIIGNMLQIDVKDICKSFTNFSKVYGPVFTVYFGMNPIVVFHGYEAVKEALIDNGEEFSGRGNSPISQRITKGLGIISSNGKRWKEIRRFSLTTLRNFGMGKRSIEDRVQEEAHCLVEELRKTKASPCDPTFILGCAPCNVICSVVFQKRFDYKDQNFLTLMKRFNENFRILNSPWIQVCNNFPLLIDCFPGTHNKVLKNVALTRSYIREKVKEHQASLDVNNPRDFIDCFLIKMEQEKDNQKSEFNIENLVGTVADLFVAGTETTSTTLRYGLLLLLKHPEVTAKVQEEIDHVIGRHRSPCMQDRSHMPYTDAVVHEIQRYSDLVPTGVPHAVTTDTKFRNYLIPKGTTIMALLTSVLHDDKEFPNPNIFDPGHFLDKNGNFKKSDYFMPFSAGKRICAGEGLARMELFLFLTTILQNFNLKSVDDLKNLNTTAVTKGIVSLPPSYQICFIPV

CYP3A4&5 = assay: CYP inhibition in human liver microsomes, testosterone substrate; type: in vitro ADME; conditions: probe testosterone, read-out: CYP3A4&5 testosterone Inh %
[2] = biological target: T7, human recombinant AT1 receptor (Homo sapiens, UniProt P30556); assay: Binding to AT1 receptor, radiometric scintillation assay (Eurofins ITEM24)
T7 construct: Eurofins protocol ITEM24
T7 sequence (P30556 1-359): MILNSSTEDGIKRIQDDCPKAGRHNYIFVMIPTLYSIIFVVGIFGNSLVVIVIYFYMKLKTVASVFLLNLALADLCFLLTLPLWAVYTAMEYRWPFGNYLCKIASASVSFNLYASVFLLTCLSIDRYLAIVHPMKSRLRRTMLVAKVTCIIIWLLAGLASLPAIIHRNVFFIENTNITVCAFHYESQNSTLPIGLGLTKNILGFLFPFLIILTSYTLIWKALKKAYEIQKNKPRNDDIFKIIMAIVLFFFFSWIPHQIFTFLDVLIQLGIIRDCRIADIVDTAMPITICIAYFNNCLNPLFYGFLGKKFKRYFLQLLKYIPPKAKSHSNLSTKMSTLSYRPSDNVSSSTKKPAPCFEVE

[3] = biological target: T8, human recombinant AT2 receptor (Homo sapiens, UniProt P50052); assay: biochemical; type: binding; conditions: ligand 125I CGP 42112A; for IC50: test concentrations 1, 10, 100 and 1000 nM, C21* = mean of runs, read-out: AT2 GraFit IC50
T8 sequence (P50052 1-363): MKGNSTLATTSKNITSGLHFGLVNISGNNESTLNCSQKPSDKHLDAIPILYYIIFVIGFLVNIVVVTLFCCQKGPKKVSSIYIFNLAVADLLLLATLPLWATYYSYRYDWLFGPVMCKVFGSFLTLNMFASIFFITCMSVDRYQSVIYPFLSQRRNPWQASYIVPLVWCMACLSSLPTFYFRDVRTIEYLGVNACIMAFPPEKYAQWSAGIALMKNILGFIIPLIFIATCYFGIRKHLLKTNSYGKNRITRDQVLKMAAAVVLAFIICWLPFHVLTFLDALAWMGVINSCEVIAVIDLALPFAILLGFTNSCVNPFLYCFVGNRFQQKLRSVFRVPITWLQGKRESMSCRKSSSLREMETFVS

CYP2C19 = biological target: T9, CYP2C19 (Homo sapiens, UniProt P33261); assay: CYP inhibition in human liver microsomes, omeprazole substrate; type: in vitro ADME; conditions: probe omeprazole, read-out: CYP2C19 Inh %
T9 construct: using isoform-specific substrates incubated with human liver microsomes; tissue Eurofins protocol ITEMG232; host or cells: human liver microsomes
T9 sequence (P33261 whole entry, canonical isoform): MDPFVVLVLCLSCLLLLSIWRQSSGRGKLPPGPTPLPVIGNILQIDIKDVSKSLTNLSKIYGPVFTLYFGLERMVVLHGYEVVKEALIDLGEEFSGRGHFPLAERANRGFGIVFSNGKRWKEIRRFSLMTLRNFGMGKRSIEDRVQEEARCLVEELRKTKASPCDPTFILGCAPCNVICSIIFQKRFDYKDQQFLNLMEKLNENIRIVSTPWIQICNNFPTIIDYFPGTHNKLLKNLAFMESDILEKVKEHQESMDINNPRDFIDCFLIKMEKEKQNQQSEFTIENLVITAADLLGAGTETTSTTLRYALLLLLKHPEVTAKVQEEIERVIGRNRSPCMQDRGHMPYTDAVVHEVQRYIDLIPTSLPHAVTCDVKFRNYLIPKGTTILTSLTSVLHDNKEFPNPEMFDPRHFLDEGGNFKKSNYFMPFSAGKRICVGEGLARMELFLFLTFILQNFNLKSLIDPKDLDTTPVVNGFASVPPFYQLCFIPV

Row | SMILES | inhibition at 10 µM (CYP2B6) [%] | inhibition at 10 µM (CYP2D6) [%] | inhibition at 10 µM (CYP2C9) [%] | inhibition at 10 µM (CYP3A4) [%] | T1/2, + NaDPH [1] [h] | half-life at 1 uM [1] [h] | inhibition at 10 µM (CYP1A) [%] | inhibition at 10 µM (CYP2C8) [%] | inhibition at 10 µM (CYP3A4&5) [%] | IC50 [2] [nM] | IC50 [3] [nM] | inhibition at 10 µM (CYP2C19) [%] | Ki ([3]; seven-point dose-response curve, read-out: AT2R Ki) [nM]
1 | Cc1nccn1Cc1ccc(-c2cc(CC(C)C)sc2S(=O)(=O)NC(=O)NCC(C)(C)O)cc1F [Example 3, 1-[[3-[3-Fluoro-4-[(2-methylimidazol-1-yl)methyl]phenyl]-5-isobutyl-2-thienyl]sulfonyl]-3-(2-hydroxy-2-methyl-propyl)urea] | 22.6 | 38 | 31.8 | 52.8 | >1 | > 1 | 15.5 | 28 | 29.7 | 23000 | 5.4 | 21.2 | 
2 | CC(C)Cc1cc(-c2ccc(Cn3ccnc3C(C)C)c(F)c2)c(S(=O)(=O)NC(=O)NCCO)s1 [Example 10, 1-[[3-[3-Fluoro-4-[(2-isopropylimidazol-1-yl)methyl]phenyl]-5-isobutyl-2-thienyl]sulfonyl]-3-(2-hydroxyethyl)urea] |  |  |  |  | >1 | > 1 |  |  |  | 8400 | 1.9 |  | 0.95
3 | Cc1nccn1Cc1ccc(-c2cc(CC(C)C)sc2S(=O)(=O)NC(=O)NCCCO)cc1F [Example 2, 1-[[3-[3-Fluoro-4-[(2-methylimidazol-1-yl)methyl]phenyl]-5-isobutyl-2-thienyl]sulfonyl]-3-(3-hydroxypropyl)urea] | 3.1 | 13.6 | 16.5 | 25.3 | >1 | > 1 | -0.9 | 30.9 | 18.4 | 21000 | 20 | 26.3 | 
4 | Cc1nccn1Cc1c(F)cc(-c2cc(CC(C)C)sc2S(=O)(=O)NC(=O)NCCO)cc1F [Example 5, 1-[[3-[3,5-Difluoro-4-[(2-methylimidazol-1-yl)methyl]phenyl]-5-isobutyl-2-thienyl]sulfonyl]-3-(2-hydroxyethyl)urea] | 27.4 | 36.3 | 38 | 44.6 | >1 | > 1 | 8 | 36.2 | 27.5 | 49000 | 18.4 | -30.1 | 
5 | CC(C)Cc1cc(-c2ccc(Cn3ccnc3C(C)(C)C)c(F)c2)c(S(=O)(=O)NC(=O)NCC(C)(C)O)s1 [Example 7, 1-[[3-[4-[(2-tert-Butylimidazol-1-yl)methyl]-3-fluoro-phenyl]-5-isobutyl-2-thienyl]sulfonyl]-3-(2-hydroxy-2-methyl-propyl)urea] | 17.4 | 3.9 | 9.9 | 7.7 | >1 | > 1 | 2.7 | 69.8 | 2.8 | 1900 | 0.95 | 27.4 | 
6 | Cc1nccn1Cc1ccc(-c2cc(CC(C)C)sc2S(=O)(=O)NC(=O)NCCO)cc1F [Example 1, 1-[[3-[3-Fluoro-4-[(2-methylimidazol-1-yl)methyl]phenyl]-5-isobutyl-2-thienyl]sulfonyl]-3-(2-hydroxyethyl)urea] | 6.2 | 5.3 | 5.5 | 7.2 | >1 | > 1 | -26.3 | 35.2 | 12.4 | 24000 | 5 | 6.5 | 
7 | CC(C)Cc1cc(-c2ccc(Cn3ccnc3C(C)(C)C)c(F)c2)c(S(=O)(=O)NC(=O)NCCO)s1 [Example 6, 1-[[3-[4-[(2-tert-Butylimidazol-1-yl)methyl]-3-fluoro-phenyl]-5-isobutyl-2-thienyl]sulfonyl]-3-(2-hydroxyethyl)urea] | 8.2 | 10.1 | 11.5 | 13 | >1 | > 1 | 3.5 | 73.8 | 4.5 | 2100 | 0.64 | 14.7 | 
8 | Cc1nccn1Cc1ccc(-c2cc(CC(C)C)sc2S(=O)(=O)NC(=O)NCCO)c(F)c1 [Example 4, 1-[[3-[2-Fluoro-4-[(2-methylimidazol-1-yl)methyl]phenyl]-5-isobutyl-2-thienyl]sulfonyl]-3-(2-hydroxyethyl)urea] | 3.2 | 7.6 | 11.9 | 24.5 |  |  | -9.7 | 10.4 | 18.9 | 34000 | 45.5 | 29.6 | 
9 | CCc1nccn1Cc1ccc(-c2cc(CC(C)C)sc2S(=O)(=O)NC(=O)NCCO)cc1F [Example 8] | 14 | 8 | 26.8 | 23.7 | >1 | > 1 | 11.8 | 2.3 | 22.3 | 9500 | 2.5 | 17.7 | 
